# Assay results from US9233171B2, “Method of treatment of tumors that are resistant to EGFR antibody therapies by EGFR antibody cytotoxic agent conjugate” (ImmunoGen, Inc., priority 2011, dated 2016).
# Where two headings read alike, the source gives them in different places.
# B1: huEGFR-7R antibody (antibody, V domains shown)
# VH: QVQLVQSGAEVAKPGASVKLSCKASGYTFTSYWMQWVKQRPGQGLECIGTIYPGDGDTTYTQKFQGKATLTADKSSSTAYMQLSSLRSEDSAVYYCARYDAPGYAMDYWGQGTLVTVSS
# VL: DIQMTQSPSSLSASVGDRVTITCRASQDINNYLAWYQHKPGKGPKLLIHYTSTLHPGIPSRFSGSGSGRDYSFSISSLEPEDIATYYCLQYDNLLYTFGQGTKLEIKR
# Assays:
# H2228 cells [1] = conditions: H2228, Koivunen et al. 2008; cited from earlier work
# H2228 cells [2] = assay: cytotoxic activity, H2228; assay type: cell-based; conditions: Homo sapiens, NCI-H2228
# Procedure: (§1) The cytotoxic assay was performed as follows.
# EML4-ALK gene translocation leads to a constitutive activation of ALK kinase and has been identified as a driver mutation in ˜5% of NSCLC adenocarcinoma (reviewed in Castro-Carpeno J. et al., Clin Transl Oncol. 13:774-779 (2011)). […] Unfortunately, ˜40% of EML4-ALK+ tumors are resistant to crizotinib. Additionally, tumors that are sensitive to crizotinib can rapidly develop resistance to the drug (Castro-Carpeno J. et al., Clin Transl Oncol. 13:774-779 (2011)).
# HCC827-ER-E4 cell line [3] = assay: Western blot after 16 hour erlotinib treatment, HCC827-ER-E4; assay type: cell-based; conditions: HCC827-ER-E4, erlotinib 16 hours
# HCC827-ER cell line [4] = assay: in vitro cytotoxicity assay, HCC827-ER
# HCC827-ER-E4 cell line [5] = assay: in vitro cytotoxicity assay, HCC827-ER-E4
# [6] = tested on: HCC827 parental cell line; assay: Western blot after 16 hour erlotinib treatment, HCC827 parental; assay type: cell-based; conditions: erlotinib 16 hours
# [7] = tested on: Parental HCC827 (Aichi) cells; assay: in vitro cytotoxicity assay, parental HCC827 (Aichi); assay type: cell-based
# Procedure: as §1
# (§2) The HCC827 ER cell line contains high MET gene copy number and the HCC827 EPR cell line carries T790M EGFR mutation (Suda K. et al. Clin Cancer Res 16: 5489 (2010)). These cell lines reflect the two major mechanisms of resistance against EGFR tyrosine kinase inhibitors (Sequist L. et al. Sci Transl Med 3: 75ra26 (2011)).
# H226 cell line [8] = conditions: H226, Yauch et al. 2005; cited from earlier work
# HCC827 ER (Aichi) cells = assay: in vitro cytotoxicity assay, HCC827 ER (Aichi); assay type: cell-based
# Procedure: as §1, §2
# HCC827 cell line = assay: in vitro cytotoxic assay, HCC827 in absence or presence of HGF
# HCC827-ER-E4 cell line [9] = tested on: HCC827-ER-E4 cell line
# [10] = molecular target: EGFR on parental HCC827 (Aichi) NSCLC cells (exon 19 deletion EGFR mutation) (UniProt P00533 25-1210); assay: cell-based or functional assay
# HCC827 EPR (Aichi) cells = assay: in vitro cytotoxicity assay, HCC827 EPR (Aichi); assay type: cell-based
# Procedure: as §1, §2
# HCC827-ER cell line [11] = tested on: HCC827-ER cell line
# NCI-H1975 cell line = assay: in vitro cytotoxic assay (WST-8), NCI-H1975; assay type: cell-based
# Procedure: NCI-H1975 cell line is a NSCLC adenocarcinoma cell line that carries both sensitizing (L858R) and resistant (T790M) EGFR mutations (Cosmic database, Wellcome Trust Sanger Institute), thus it closely mimics the EGFR kinase inhibitor resistant tumors found in the clinical setting.
# as §1
# Detroit 562 = assay: in vitro cytotoxicity assay, Detroit 562; assay type: cell-based; conditions: Detroit562
# H226 cell line [12] = assay: in vitro cytotoxic assay, H226; assay type: cell-based
# Procedure: as §1
# NSCLC cell lines with mesenchymal histology are generally more resistant to gefitinib than those with epithelial histology (Yauch R L. et al. Clin Cancer Res 11: 8686 (2005)). […] H226 cell line is a squamous cell carcinoma with mesenchymal histology.
molecule,measurement,setting,value
COc1cc(N2CCC(N3CCN(C)CC3)CC2)ccc1Nc1ncc(Cl)c(Nc2ccccc2S(=O)(=O)C(C)C)n1 [TAE684],resistance of cell line,H2228 cells [1],resistant
C[C@@H](Oc1cc(-c2cnn(C3CCNCC3)c2)cnc1N)c1c(Cl)ccc(F)c1Cl [crizotinib],EC50,"H2228 cells [2]; H2228, EML4-ALK translocation, read-out: EC50",3.82 µM
C#Cc1cccc(Nc2ncnc3cc(OCCOC)c(OCCOC)cc23)c1 [erlotinib],EC50,H2228 cells [2],26.1 µM
same,AKT level,HCC827-ER-E4 cell line [3],not changed
same,EGFR phosphorylation,HCC827-ER-E4 cell line [3],completely inhibited
same,ERK1/2 phosphorylation,HCC827-ER-E4 cell line [3],less impact
same,phospho AKT (pAKT) level,HCC827-ER-E4 cell line [3],little change
same,cytotoxic effect,HCC827-ER cell line [4],highly resistant
same,cytotoxic effect,HCC827-ER-E4 cell line [5],maintained erlotinib resistance
same,AKT level,[6],reduced
same,AKT phosphorylation,[6],inhibited
same,EGFR phosphorylation,[6],completely inhibited
same,ERK1/2 phosphorylation,[6],inhibited
same,sensitivity,[7],highly sensitive
COc1cc2ncnc(Nc3ccc(F)c(Cl)c3)c2cc1OCCCN1CCOCC1 [gefitinib],resistance of cell line,H226 cell line [8],resistant
B1,sensitivity / resistance,HCC827 ER (Aichi) cells,highly resistant
same,cell growth inhibition,HCC827 cell line; HCC827 + 50 ng/mL HGF,further reduced
same,cell growth inhibition,"HCC827 cell line; HCC827, absence of HGF",marginal activities
same,cytotoxic effect,HCC827-ER-E4 cell line [9],little effect
same,"EC50, in vitro cytotoxicity (WST-8 cell viability) on parental HCC827 (Aichi) cells",[10],0.000426 µM
same,sensitivity / resistance,HCC827 EPR (Aichi) cells,highly resistant
same,sensitivity,[7],highly sensitive
same,cytotoxic effect,HCC827-ER cell line [11],little effect
same,cytotoxic effect,NCI-H1975 cell line,did not have any effect
same,effect on tumor cell growth,Detroit 562,had no effect
same,effect on tumor cell growth,H226 cell line [12],neither the huEGFR-7R antibody nor cetuximab had effect
